Molecular target: JAK1 (Homo sapiens (Human), UniProt P23458)
Experiment: Analysis of JAK1 activity inhibition ability (ADP-Glo Kinase Assay)
Type: biochemical
Settings: JAK1 enzyme, ADP-Glo luminescence, ATP 250 uM, IRS-itide substrate, 30° C. 40 minutes; read-out: IC50
How it was run: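 ADP-Glo luminescence read-out of ADP production, with IC50 taken as the concentration halving JAK1 activity relative to control. Enzyme was incubated 40 min at 30 °C with compound, IRS-itide (40 ng/mL) and ATP (250 uM), concentrations as prepared in pH 7.5 Tris-HCl/MgCl2/BSA/DTT buffer.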

Sequence of JAK1 (P23458 whole entry): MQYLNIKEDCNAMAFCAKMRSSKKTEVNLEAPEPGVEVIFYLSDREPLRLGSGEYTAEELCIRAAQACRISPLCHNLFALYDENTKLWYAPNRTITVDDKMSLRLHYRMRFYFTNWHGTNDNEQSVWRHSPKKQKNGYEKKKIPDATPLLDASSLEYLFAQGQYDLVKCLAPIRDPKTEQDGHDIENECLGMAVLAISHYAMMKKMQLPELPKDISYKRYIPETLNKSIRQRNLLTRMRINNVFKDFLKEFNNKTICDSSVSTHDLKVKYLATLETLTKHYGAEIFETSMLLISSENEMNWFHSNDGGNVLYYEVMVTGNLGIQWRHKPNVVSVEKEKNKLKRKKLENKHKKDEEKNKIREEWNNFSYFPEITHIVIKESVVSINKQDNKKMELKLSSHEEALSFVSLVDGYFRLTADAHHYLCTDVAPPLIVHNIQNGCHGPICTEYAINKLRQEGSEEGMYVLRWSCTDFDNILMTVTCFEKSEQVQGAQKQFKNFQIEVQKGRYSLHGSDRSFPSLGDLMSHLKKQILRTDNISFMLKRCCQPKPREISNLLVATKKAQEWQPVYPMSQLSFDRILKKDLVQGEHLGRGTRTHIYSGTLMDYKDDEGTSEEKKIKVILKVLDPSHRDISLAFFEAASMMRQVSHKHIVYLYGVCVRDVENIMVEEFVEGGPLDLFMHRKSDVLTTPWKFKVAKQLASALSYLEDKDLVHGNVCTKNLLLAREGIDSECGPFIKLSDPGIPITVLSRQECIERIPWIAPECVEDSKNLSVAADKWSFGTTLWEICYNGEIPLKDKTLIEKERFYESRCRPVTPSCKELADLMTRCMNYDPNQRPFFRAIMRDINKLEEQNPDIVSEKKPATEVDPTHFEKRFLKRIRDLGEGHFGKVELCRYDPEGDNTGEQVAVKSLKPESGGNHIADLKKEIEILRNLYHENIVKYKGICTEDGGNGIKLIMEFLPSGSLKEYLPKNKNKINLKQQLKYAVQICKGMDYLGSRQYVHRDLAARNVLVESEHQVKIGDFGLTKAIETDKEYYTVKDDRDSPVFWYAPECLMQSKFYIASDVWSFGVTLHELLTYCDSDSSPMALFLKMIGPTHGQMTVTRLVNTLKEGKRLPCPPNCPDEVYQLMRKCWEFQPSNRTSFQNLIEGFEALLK

Row | SMILES | IC50 [nM]
1 | C=CCS(=O)(=O)Nc1ccc(-c2cc(NC(=O)C3CC3)nc3[nH]ccc23)cc1 [Example 48, N-(4-(4-(allylsulfonamido)phenyl)-1H-pyrrolo[2,3-b]pyridin-6-yl)cyclopropanecarboxamide] | < 20
2 | CC1CN(C(=O)c2ccnc3[nH]ccc23)CC=C1c1cc(NC(=O)C2CC2)nc2[nH]ccc12 (stereo not drawn) [Example 328, N-(4-(3-methyl-1-(1H-pyrrolo[2,3-b]pyridine-4-carbonyl)-1,2,3,6-tetrahydropyridin-4-yl)-1H-pyrrolo[2,3-b]pyridin-6-yl)cyclopropanecarboxamide] | 20 to 200
3 | CCS(=O)(=O)Nc1c(F)cc(-c2cc(NC(=O)C3CC3)nc3[nH]ccc23)cc1F [Example 81, N-(4-(4-(ethylsulfonamido)-3,5-difluorophenyl)-1H-pyrrolo[2,3-b]pyridin-6-yl)cyclopropanecarboxamide] | 20 to 200
4 | N#CCC(=O)N1CC=C(c2cc(NC(=O)C3CC3)[n+]([O-])c3[nH]ccc23)CC1 [Example 275, 4-(1-(2-cyanoacetyl)-1,2,3,6-tetrahydropyridin-4-yl)-6-(cyclopropanecarboxamido)-1H-pyrrolo[2,3-b]pyridine 7-oxide] | < 20
5 | CCC1CC(c2cc(NC(=O)C3CC3)nc3[nH]ccc23)=CCN1C(=O)CC#N (stereo not drawn) [Example 413, N-(4-(1-(2-cyanoacetyl)-2-ethyl-1,2,3,6-tetrahydropyridin-4-yl)-1H-pyrrolo[2,3-b]pyridin-6-yl)cyclopropanecarboxamide] | < 20
6 | CCS(=O)(=O)N1CCC(n2cc(-c3cc(NC(=O)C4CC4)nc4[nH]ccc34)cn2)CC1 [Example 608, N-(4-(1-(1-(ethylsulfonyl)piperidin-4-yl)-1H-pyrazol-4-yl)-1H-pyrrolo[2,3-b]pyridin-6-yl)cyclopropanecarboxamide] | 20 to 200
7 | O=C(Nc1cc(C2=CCN(S(=O)(=O)CCCF)CC2)c2cc[nH]c2n1)C1CC1 [Example 167, N-(4-(1-((3-fluoropropyl)sulfonyl)-1,2,3,6-tetrahydropyridin-4-yl)-1H-pyrrolo[2,3-b]pyridin-6-yl)cyclopropanecarboxamide] | 20 to 200
8 | CN(CC(F)(F)F)S(=O)(=O)N1CC=C(c2cc(NC(=O)C3CC3)nc3[nH]ccc23)CC1 [Example 233, N-(4-(1-(N-methyl-N-(2,2,2-trifluoroethyl)sulfamoyl)-1,2,3,6-tetrahydropyridin-4-yl)-1H-pyrrolo[2,3-b]pyridin-6-yl)cyclopropanecarboxamide] | 20 to 200
9 | CCc1cc(NS(=O)(=O)CCCC#N)ccc1-c1cc(NC(=O)C2CC2)nc2[nH]ccc12 [Example 111, N-(4-(4-((3-cyanopropyl)sulfonamido)-2-ethylphenyl)-1H-pyrrolo[2,3-b]pyridin-6-yl)cyclopropanecarboxamide] | < 20
10 | COC(=O)c1cc(NS(=O)(=O)CC2(C#N)CC2)ccc1-c1cc(NC(=O)C2CC2)nc2[nH]ccc12 [Example 142, methyl 5-(((1-cyanocyclopropyl)methyl)sulfonamido)-2-(6-(cyclopropanecarboxamido)-1H-pyrrolo[2,3-b]pyridin-4-yl)benzoate] | > 200
11 | N#CCC(=O)N1CC=C(c2nc(NC(=O)C3CC3)nc3[nH]ccc23)CC1 [Example 425, N-(4-(1-(2-cyanoacetyl)-1,2,3,6-tetrahydropyridin-4-yl)-7H-pyrrolo[2,3-d]pyrimidin-2-yl)cyclopropanecarboxamide] | 20 to 200
12 | Cc1cc(C(=O)N2CC=C(c3cc(NC(=O)C4CC4)nc4[nH]ccc34)C(C)C2)cc(Cl)n1 (stereo not drawn) [Example 375, N-(4-(1-(2-chloro-6-methylisonicotinoyl)-3-methyl-1,2,3,6-tetrahydropyridin-4-yl)-1H-pyrrolo[2,3-b]pyridin-6-yl)cyclopropanecarboxamide] | 20 to 200
13 | O=C(Nc1nc(-c2ccc(NS(=O)(=O)CCCF)cc2)c2cc[nH]c2n1)C1CC1 [Example 185, N-(4-(4-((3-fluoropropyl)sulfonamido)phenyl)-7H-pyrrolo[2,3-d]pyrimidin-2-yl)cyclopropanecarboxamide] | < 20
14 | CC1CN(C(=O)Cc2cccs2)CC=C1c1cc(NC(=O)C2CC2)nc2[nH]ccc12 (stereo not drawn) [Example 345, N-(4-(3-methyl-1-(2-(thiophen-2-yl)acetyl)-1,2,3,6-tetrahydropyridin-4-yl)-1H-pyrrolo[2,3-b]pyridin-6-yl)cyclopropanecarboxamide] | 20 to 200
15 | N#CCC(=O)N1C2CCC1CN(c1cc(NC(=O)C3CC3)nc3[nH]ccc13)C2 [Example 677, N-(4-(8-(2-cyanoacetyl)-3,8-diazabicyclo[3.2.1]octan-3-yl)-1H-pyrrolo[2,3-b]pyridin-6-yl)cyclopropanecarboxamide] | < 20
16 | O=C(Nc1cc(-c2ccc(CC(=O)N3CCCCC3)cc2)c2cc[nH]c2n1)C1CC1 [Example 557, N-(4-(4-(2-oxo-2-(piperidin-1-yl)ethyl)phenyl)-1H-pyrrolo[2,3-b]pyridin-6-yl)cyclopropanecarboxamide] | 20 to 200
17 | Cc1cc(NS(=O)(=O)N(C)CC(F)(F)F)ccc1-c1cc(NC(=O)C2CC2)nc2[nH]ccc12 [Example 228, N-(4-(2-methyl-4-((N-methyl-N-(2,2,2-trifluoroethyl)sulfamoyl)amino)phenyl)-1H-pyrrolo[2,3-b]pyridin-6-yl)cyclopropanecarboxamide] | < 20

Row | SMILES | IC50 [nM]
18 | CN1CCN(C(=O)Cc2ccc(-c3cc(NC(=O)C4CC4)nc4[nH]ccc34)cc2)CC1 [Example 550, N-(4-(4-(2-(4-methylpiperazin-1-yl)-2-oxoethyl)phenyl)-1H-pyrrolo[2,3-b]pyridin-6-yl)cyclopropanecarboxamide] | 20 to 200
19 | CCNC(=S)N1C2CCC1CC(c1cc(NC(=O)C3CC3)nc3[nH]ccc13)C2 (stereo not drawn) [Example 657, N-(4-(8-(ethylcarbamothioyl)-8-azabicyclo[3.2.1]octan-3-yl)-1H-pyrrolo[2,3-b]pyridin-6-yl)cyclopropanecarboxamide] | 20 to 200
20 | CCCS(=O)(=O)Nc1ccc(-c2cc(NC(=O)C3CC3)nc3[nH]ccc23)c(C)c1C [Example 132, N-(4-(2,3-dimethyl-4-(propylsulfonamido)phenyl)-1H-pyrrolo[2,3-b]pyridin-6-yl)cyclopropanecarboxamide] | 20 to 200
21 | O=C(Nc1cc(-c2ccc(C(=O)N3CCSCC3)cc2)c2cc[nH]c2n1)C1CC1 [Example 521, N-(4-(4-(thiomorpholine-4-carbonyl)phenyl)-1H-pyrrolo[2,3-b]pyridin-6-yl)cyclopropanecarboxamide] | 20 to 200
22 | N#CCC(=O)N1CC(Nc2ccc(-c3cc(NC(=O)C4CC4)nc4[nH]ccc34)cc2)C1 [Example 515, N-(4-(4-((1-(2-cyanoacetyl)azetidin-3-yl)amino)phenyl)-1H-pyrrolo[2,3-b]pyridin-6-yl)cyclopropanecarboxamide] | 20 to 200
23 | O=C(Nc1cc(-c2ccc(CS(=O)(=O)N3CCOCC3)cc2)c2cc[nH]c2n1)C1CC1 [Example 534, N-(4-(4-((morpholinosulfonyl)methyl)phenyl)-1H-pyrrolo[2,3-b]pyridin-6-yl)cyclopropanecarboxamide] | > 200
24 | O=C(Nc1cc(C2=CCC(NC3CN(C(=O)c4cc(F)cc(F)c4)C3)CC2)c2cc[nH]c2n1)C1CC1 (stereo not drawn) [Example 495, N-(4-(4-((1-(3,5-difluorobenzoyl)azetidin-3-yl)amino)cyclohex-1-en-1-yl)-1H-pyrrolo[2,3-b]pyridin-6-yl)cyclopropanecarboxamide] | 20 to 200
25 | CCS(=O)(=O)N1C2CCC1CN(c1nc(NC(=O)C3CC3)nc3[nH]ccc13)C2 [Example 669, N-(4-(8-(ethylsulfonyl)-3,8-diazabicyclo[3.2.1]octan-3-yl)-7H-pyrrolo[2,3-d]pyrimidin-2-yl)cyclopropanecarboxamide] | 20 to 200
26 | CCCCNC(=O)N1CC=C(c2cc(NC(=O)C3CC3)nc3[nH]ccc23)CC1 [Example 444, N-butyl-4-(6-(cyclopropanecarboxamido)-1H-pyrrolo[2,3-b]pyridin-4-yl)-3,6-dihydropyridine-1 (2H)-carboxamide] | 20 to 200
27 | CC(=O)N1CCC(S(=O)(=O)Nc2ccc(-c3cc(NC(=O)C4CC4)nc4[nH]ccc34)cc2)CC1 [Example 18, N-(4-(4-((1-acetylpiperidine)-4-sulfonamido)phenyl)-1H-pyrrolo[2,3-b]pyridin-6-yl)cyclopropanecarboxamide] | 20 to 200
28 | CC(C)CS(=O)(=O)Nc1ccc(-c2cc(NC(=O)C3CC3)nc3[nH]ccc23)cc1F [Example 75, N-(4-(3-fluoro-4-((2-methylpropyl)sulfonamido)phenyl)-1H-pyrrolo[2,3-b]pyridin-6-yl)cyclopropanecarboxamide] | < 20
29 | N#CC1(CC(=O)N2CCN(c3cc(NC(=O)C4CC4)nc4[nH]ccc34)CC2)CC1 [Example 683, N-(4-(4-(2-(1-cyanocyclopropyl)acetyl)piperazin-1-yl)-1H-pyrrolo[2,3-b]pyridin-6-yl)cyclopropanecarboxamide] | 20 to 200
30 | CCS(=O)(=O)Nc1ccc(-c2cc(N/C(=N\C)C3CC3)nc3[nH]ccc23)cc1 [Example 714, (Z)—N-(4-(4-(ethylsulfonamido)phenyl)-1H-pyrrolo[2,3-b]pyridin-6-yl)-N′-methylcyclopropanecarboximidamide] | > 200
31 | N#CCNC(=O)N1CC=C(c2cc(NC(=O)C3CC3)nc3[nH]ccc23)CC1 [Example 447, N-(cyanomethyl)-4-(6-(cyclopropanecarboxamido)-1H-pyrrolo[2,3-b]pyridin-4-yl)-3,6-dihydropyridine-1 (2H)-carboxamide] | 20 to 200
32 | CC1(C)CN(C(=O)CCC#N)CC=C1c1cc(NC(=O)C2CC2)nc2[nH]ccc12 [Example 300, N-(4-(1-(3-cyanopropanoyl)-3,3-dimethyl-1,2,3,6-tetrahydropyridin-4-yl)-1H-pyrrolo[2,3-b]pyridin-6-yl)cyclopropanecarboxamide] | 20 to 200
33 | CCCS(=O)(=O)Nc1ccc(-c2nc(NC(=O)C3CC3)nc3[nH]ccc23)cc1 [Example 190, N-(4-(4-(propylsulfonamido)phenyl)-7H-pyrrolo[2,3-d]pyrimidin-2-yl)cyclopropanecarboxamide] | < 20
